Assay results as given in article PMC5082600, “New furoisocoumarins and isocoumarins from the mangrove endophytic fungus Aspergillus sp. 085242” (Beilstein Journal of Organic Chemistry, 2016).

Experiments:
[1] = DPPH free radical scavenging assay; conditions: DPPH 150 μM in MeOH, 30 min, room temperature, absorbance at 490 nm; vitamin C as positive control
Procedure: The assay for DPPH radical scavenging activity was measured by a reported method, with slight modifications. Firstly, 180 μL of DPPH^· (150 μM in MeOH) and 20 μL of a series of test compound solutions (31.2, 62.5, 125, 250, 500 μM in MeOH) were mixed in each well of a 96-well microtiter plate. The reaction was measured by determination of the absorbance Asample+DPPH· using a microtiter plate reader at 490 nm after shaking for 30 min at room temperature in the dark. Twenty μL test samples of each concentration with 180 μL of MeOH were used as the blank measurement for each tested compound, and the absorbance was recorded as Asample. The absorbance of the mixture of 20 μL of MeOH and 180 μL of DPPH^· was recorded as ADPPH·, and the absorbance of the 200 μL of MeOH was measured as Ablank. The natural antioxidant vitamin C was used as a positive control. Calculations of the DPPH^· scavenging activity was performed according to the following equation: scavenging activity (%) = [1 − (Asample+DPPH· − Asample)/(ADPPH· − Ablank)] × 100%. All measurements were done in triplicate from two independent experiments. The reported EC50 was the average value of two independent experiments.

SMILES: O=C1O[C@H]([C@@H](O)CO)C(O)=C1O [vitamin C, reference compound]
- EC50 [1]: 35 µM

SMILES: COc1cc2c(c(O)c1COCc1c(OC)cc3c(c1O)C(=O)OCC3)C(=O)OCC2 [Compound 6, asperisocoumarin F]
- melting point: 201.1 to 203 °C

SMILES: CC(C)c1cc2ccc3c(c2o1)C(=O)O[C@H](C)C3 [Compound 3, (R)-2-isopropyl-7-methyl-6,7-dihydro-9H-furo[3,2-h]isochromen-9-one]
- EC50 [1]: 130 µM

SMILES: CC(C)[C@H]1Oc2c(ccc3c2C(=O)O[C@H](C)C3)[C@H]1O [Compound 2, asperisocoumarin B]
- melting point: 179.4 to 181.4 °C

SMILES: CC(C)=C1Oc2c(ccc3cc(C)oc(=O)c23)C1=O [Compound 1, 7-methyl-2-(propan-2-ylidene)-9H-furo[3,2-h]isochromene-3,9(2H)-dione]
- EC50 [1]: 125 µM
